Results taken from patent US20160178605A1, “Electrical Cell-substrate Impedance Sensor (ECIS)” (priority 2015, published 2016).

System: MCF-7 cells
Assay: SiNW-ECIS impedance and capacitance response of MCF-7 cells to antitubulin drugs
Assay type: cell-based, human
Conditions: PTX 0.1 nano-moles per liter; for normalized capacitance change (ΔC %) vs control sample / normalized impedance change (ΔZ %) vs control sample: MCF-7, 2 hours (T1) after drug incubation; for normalized capacitance change (ΔC %) vs control sample / normalized impedance change (ΔZ %) vs control sample / change in norm of impedance of treated cells between T1 and T2 / norm of capacitive changes, control sample more than drug treated values: ABZ 2.1 nano-moles per liter; for normalized impedance change (ΔZ %) vs control sample: mean; for norm of capacitive changes, control sample more than drug treated values: MCF-7, 6 hours (T2) after drug incubation
Method: In this example, the diagnostic response of cells membrane to extremely low dose of antitubulin drugs is investigated. Initially, MCF-7 cell lines, isolated from grade I human breast tumors, were obtained from the National Cell Bank of Iran (Pasteur Institute). Then, cells were maintained in a CO2 incubator (37° C., 5% CO2) in RPMI-1640 medium supplemented with 5% fetal bovine serum, and 1% penicillin/streptomycin. The fresh medium was replaced every other day. Then, the cultured cells were dropped on the surface of the SiNW-ECIS, designed and fabricated pursuant to teachings of the present application. Prior to each experiment, cells were trypsinized to be detached from the substrate and resuspended on the SiNW surface. To minimize the effect of trypsinization, the procedure may last for less than 4 minutes at room temperature of about 20° C. The samples were held in an incubator for about 4 hours to achieve cells attachment on the SiNWs. Thereafter, the ABZ drug with low concentrations of about 2.1 nano-moles per liter and the PTX drug with low concentrations of about 0.1 nano-moles per liter were added to individual samples. Finally, the signal recording and biological assays were investigated about 2 hours and 6 hours after the drug treatment (6 hours and 10 hours after the beginning of culturing process).
Referring to FIGS. 12A-12G, comparative normalized diagrams of impedance (designated by ΔZ % and represented by solid black lines) and capacitance changes (designated by ΔC % and represented by dashed grey lines) are illustrated for MCF-7 cells seeded on SiNW electrodes after treating by 2.1 nano-moles per liter of ABZ and 0.1 nano-moles per liter of PTX. The time interval between the drug incubation and the signal extraction are 2 hours (designated by T1) and 6 hours (designated by T2). In addition, the same diagrams are plotted for control sample prepared with no drug treatment stage.
According to the method described in the present example, the samples were maintained in an incubator so that the signal extraction was repeated 10 hours after cells dropping (6 hours after drug incubation for treated samples) to monitor the time evolution of drug induced MT polymerization/depolymerization on bioelectrical response of the membrane.

[1] = MCF-7, 2 hours (T1) vs 6 hours (T2) after drug incubation

| SMILES | normalized capacitance change (ΔC %) vs control sample | normalized impedance change (ΔZ %) vs control sample | change in norm of impedance of treated cells between T1 and T2 [1] | norm of capacitive changes, control sample more than drug treated values | time dependent variation in capacitive behavior between T1 and T2 [1] |
| --- | --- | --- | --- | --- | --- |
| CCCSc1ccc2nc(NC(=O)OC)[nH]c2c1 [ABZ, Albendazole] | 70% | 25% | about 60% | about 90% |  |
| CC(=O)O[C@H]1C(=O)[C@@]2(C)[C@H]([C@H](OC(=O)c3ccccc3)[C@]3(O)C[C@H](OC(=O)[C@H](O)[C@@H](NC(=O)c4ccccc4)c4ccccc4)C(C)=C1C3(C)C)[C@]1(OC(C)=O)CO[C@@H]1C[C@@H]2O [PTX, Paclitaxel] | about 60% | about 50% | 15% | ~75% | about 85% |
